# Source: ChEMBL document CHEMBL1208788 (Bioorg Med Chem Lett, 2010)
# Target: Cannabinoid receptor 1 (Homo sapiens, UniProt P21554)
# Test: Displacement of [3H][…] from human recombinant cannabinoid CB1 receptor expressed in CHO cells
# Type: cell-based
# Sequence of Cannabinoid receptor 1 (P21554 whole entry): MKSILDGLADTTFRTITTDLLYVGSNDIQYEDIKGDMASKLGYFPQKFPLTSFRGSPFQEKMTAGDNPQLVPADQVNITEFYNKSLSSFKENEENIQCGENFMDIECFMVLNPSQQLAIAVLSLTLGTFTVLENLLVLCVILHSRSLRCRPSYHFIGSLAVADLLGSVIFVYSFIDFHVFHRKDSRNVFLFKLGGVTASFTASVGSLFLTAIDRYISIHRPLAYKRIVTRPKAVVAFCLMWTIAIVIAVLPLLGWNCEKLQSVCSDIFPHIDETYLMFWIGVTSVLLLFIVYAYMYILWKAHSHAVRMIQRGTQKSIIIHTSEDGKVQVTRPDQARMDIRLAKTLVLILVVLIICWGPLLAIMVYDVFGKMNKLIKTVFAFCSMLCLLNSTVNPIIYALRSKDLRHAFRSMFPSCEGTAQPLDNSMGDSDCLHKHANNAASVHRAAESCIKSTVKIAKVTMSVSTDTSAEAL
row,Structure (SMILES),IC50
1,CC(C)(Oc1ccc(C(F)(F)F)cn1)C(=O)N1CC(Cc2ccc(Cl)cc2)(c2ccccc2)C1,1300 nM
2,C[C@H](NC(=O)C(C)(C)Oc1ccc(C(F)(F)F)cn1)[C@@H](Cc1ccc(Cl)cc1)c1cccc(Br)c1 (racemic),0.59 nM
3,CC(C)(Oc1ccc(C(F)(F)F)cn1)C(=O)NC(C)(C)[C@@H](Cc1ccc(Cl)cc1)c1cccc(Br)c1 (racemic),22 nM
4,CC(C)(Oc1ccc(C(F)(F)F)cn1)C(=O)NCC(C)(Cc1ccc(Cl)cc1)c1cccc(Br)c1 (racemic),340 nM
5,CC(NC(=O)C(C)(C)Oc1ccc(C(F)(F)F)cn1)C(C)(Cc1ccc(Cl)cc1)c1cccc(Br)c1 (racemic),25 nM
6,CC(C)(Oc1ccc(C(F)(F)F)cn1)C(=O)N1CCC(Cc2ccc(Cl)cc2)(c2ccccc2)C1 (racemic),810 nM
7,CC(C)(Oc1ccc(C(F)(F)F)cn1)C(=O)N1CCCC(Cc2ccc(Cl)cc2)(c2ccccc2)C1 (racemic),2000 nM
8,CC(NC(=O)C(C)(C)Oc1ccc(C(F)(F)F)cn1)C(C)(Cc1ccc(Cl)cc1)c1cccc(Br)c1 (stereo in doubt; 5b),260 nM
